Experimental data published in patent US4593090A, “Novel nitrosourea compounds, method for preparing same, and pharmaceutical composition containing same” (Gogo Kimura, priority 1981, dated 1986).

Tests used:
[1] = Acute toxicity (LD50, Behrens-Karber method); type: in vivo, ICR mice; settings: mouse, in vivo, ip, mortality during 30 days
Protocol: Test compounds, dissolved or suspended in 0.5% aqueous CMC, were each intraperitoneally administered to ICR mice in a dose of 0.1 ml per 10 g body weight. LD50 (mg/kg) value of each test compound was calculated from the mortality of mice during 30 days by the Behrens-Karber method.

Leukemia L1210 = experiment: Activity against Leukemia L1210, intraperitoneal, increase in life span of mice; type: in vivo, female mice (BDF1 family); settings: for ED (maximum ILS) / ED30: Mus musculus, L1210, ip, ip once a day for 5 successive days; for ED (maximum ILS): daily dosage giving maximum increase of life span, read-out: O.D. (optimum dosage); for ED30: daily dosage increasing average survival days by 30%, read-out: ILS30; for Survivors after 60 days / Max. ILS % / Therapeutic ratio TR: ip; for Survivors after 60 days: 6-membered group; for Max. ILS %: 60-day observation, versus control; for Therapeutic ratio TR: O.D./ILS30
Outline: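 Dosing started 24 h after ip implantation of 1×10^5 L1210 cells into groups of 6 female BDF1 mice, by ip or oral route daily for 5 consecutive days. Survival was followed for 60 days; increase in life span was scored against untreated mice, with therapeutic ratio from optimum dose over ILS30 dose.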

| Compound | LD50 at 720 h [1] [mg/kg] | ED (maximum ILS) (Leukemia L1210) [mg/kg] | ED30 (Leukemia L1210) [mg/kg] | Survivors after 60 days (Leukemia L1210) | Max. ILS % (Leukemia L1210) [%] | Therapeutic ratio TR (Leukemia L1210) |
| --- | --- | --- | --- | --- | --- | --- |
| CC(C)CCN(C(=O)N(CCCl)N=O)[C@H]1[C@@H](O)[C@@H](CO)O[C@H](OCC(C)C)[C@@H]1O [Compound 127, 3-isoamyl-3-(isobutyl α-D-galactopyranose-3-yl)-1-(2-chloroethyl)-1-nitrosourea] | 600 | 200 | 6.56 | 3/6 | > 340 | 30.5 |
| O=NN(CCCl)C(=O)N(CC1CCCCC1)[C@H]1[C@@H](O)[C@@H](CO)O[C@H](OC2CCCCC2)[C@@H]1O [Compound 128, 3-cyclohexylmethyl-3-(cyclohexyl α-D-galactopyranose-3-yl)-1-(2-chloroethyl)-1-nitrosourea] | 650 | 200 | 5.99 | 3/6 | > 350 | 33.4 |
| CC(C)CO[C@H]1O[C@H](CO)[C@H](N(CC(C)C)C(=O)N(CCCl)N=O)[C@H](O)[C@H]1O [Compound 129, 3-isobutyl-3-(isobutyl α-D-garactopyranose-4-yl)-1-(2-chloroethyl)-1-nitrosourea] | 600 | 200 | 5.21 | 3/6 | > 350 | 38.4 |
| C=C(C)CN(C(=O)N(CCCl)N=O)[C@@H]1[C@H](O)[C@@H](O)[C@@H](OCC(COC)OC)O[C@@H]1CO (stereo partly drawn) [Compound 130, 3-(2-methyl-2-propenyl)-3-(2,3-dimethoxy-n-propyl α-D-galactopyranose-4-yl)-1-(2-chloroethyl)-1-nitrosourea] | 525 | 160 | 5.06 | 3/6 | > 340 | 31.6 |
| CCOCCO[C@H]1O[C@H](CO)[C@H](N(CC(C)C)C(=O)N(CCCl)N=O)[C@H](O)[C@H]1O [Compound 131, 3-isobutyl-3-(2-ethoxyethyl α-D-galacropyranose-4-yl)-1-(2-chloroethyl)-1-nitrosourea] | 565 | 160 | 3.98 | 4/6 | > 430 | 40.2 |
| CCCN(C[C@@H]1O[C@@H](OCC(C)C)[C@@H](O)[C@H](O)[C@@H]1O)C(=O)N(CCCl)N=O [Compound 133, 3-n-propyl-3-(isobutyl α-L-galactopyranose-6-yl)-1-(2-chloroethyl)-1-nitrosourea] | 495 | 150 | 4.11 | 3/6 | > 360 | 36.5 |
| CCCCN(C[C@@H]1O[C@@H](OCC2CC2)[C@@H](O)[C@H](O)[C@@H]1O)C(=O)N(CCCl)N=O [Compound 134, 3-n-butyl-3-(cyclopropylmethyl α-L-galactopyranose-6-yl)-1-(2-chloroethyl)-1-nitrosourea] | 490 | 150 | 3.73 | 3/6 | > 365 | 40.2 |
| CC(C)CO[C@H]1O[C@H](CO)[C@@H](N(C(=O)N(CCCl)N=O)C2CCCCC2)[C@H](O)[C@@H]1O [Compound 137, 3-cyclohexyl-3-(isobutyl α-D-mannopyranose-4-yl)-1-(2-chloroethyl)-1-nitrosourea] | 550 | 170 | 3.74 | 4/6 | > 425 | 45.5 |
| CCC(C)N(C(=O)N(CCCl)N=O)[C@H]1[C@H](O)[C@H](O)[C@@H](OCc2ccccc2)O[C@@H]1CO (stereo partly drawn) [Compound 138, 3-sec-butyl-3-(benzylα-D-mannopyranose-4-yl)-1-(2-chloroethyl)-1-nitrosourea] | 370 | 120 | 4.26 | 3/6 | > 350 | 28.2 |
| CC(C)CN(C[C@H]1O[C@H](OCc2ccccc2)[C@@H](O)[C@H](O)[C@@H]1O)C(=O)N(CCCl)N=O [Compound 139, 3-isobutyl-3-(benzyl α-D-altropyranose-6-yl)-1-(2-chloroethyl)-1-nitrosourea] | 420 | 130 | 4.58 | 3/6 | > 340 | 28.4 |
| COCC(C)N(C[C@H]1O[C@H](OCCc2ccccc2)[C@@H](O)[C@H](O)[C@@H]1O)C(=O)N(CCCl)N=O (stereo partly drawn) [Compound 141, 3-(1-methyl-2-methoxyethyl)-3-(phenyl-β-ethyl α-D-altropyranose-6-yl)-1-(2-chloroethyl)-1-nitrosourea] | 480 | 160 | 4.4 | 3/6 | > 360 | 36.4 |
| COCCN(C(=O)N(CCCl)N=O)[C@@H]1[C@@H](OCCc2ccccc2)O[C@H](CO)[C@@H](O)[C@H]1O [Compound 142, 3-(2-methoxyethyl)-3-(phenyl-β-ethyl α-D-altropyranose-2-yl)-1-(2-chloroethyl)-1-nitrosourea] | 500 | 160 | 4.16 | 3/6 | > 350 | 38.5 |
| O=NN(CCCl)C(=O)N(CC1CCCO1)[C@H]1[C@H](O)[C@@H](OCCc2ccccc2)O[C@H](CO)[C@H]1O (stereo partly drawn) [Compound 143, 3-tetrahydrofurfuryl-3-(phenyl-β-ethyl α-D-altropyranose-3-yl)-1-(2-chloroethyl)-1-nitrosourea] | 460 | 150 | 3.52 | 4/6 | > 425 | 42.6 |
| COCC(C)O[C@H]1O[C@H](CN(CC(C)C)C(=O)N(CCCl)N=O)[C@@H](O)[C@@H](O)[C@@H]1O (stereo partly drawn) [Compound 144, 3-isobutyl-3-(1-methyl-2-methoxyethyl α-D-altropyranose-6-yl)-1-(2-chloroethyl)-1-nitrosourea] | 580 | 160 | 2.8 | 6/6 | > 700 | 57.1 |
| CCCN(C(=O)N(CCCl)N=O)[C@@H]1[C@@H](O)[C@@H](OC2CCCCC2)OC[C@H]1O [Compound 147, 3-n-propyl-3-(cyclohexyl α-D-xylopyranose-3-yl)-1-(2-chloroethyl)-1-nitrosourea] | 430 | 150 | 3.91 | 3/6 | > 350 | 38.4 |
| CC(C)N(C(=O)N(CCCl)N=O)[C@@H]1CO[C@H](OC2CCCCC2)[C@H](O)[C@H]1O [Compound 148, 3-isopropyl-3-(cyclohexyl α-D-xylopyranose-4-yl)-1-(2-chloroethyl)-1-nitrosourea] | 480 | 160 | 3.81 | 4/6 | > 425 | 42.0 |
